Test results from US6544989B2, “Benzazoles: benzoxazole, benzthiazole and benzimidazole derivatives” (Syngenta Limited, priority 1998, dated 2003).

Legend:
[1] = system: Phytophthora infestans lycopersici; format: in vivo; details: METHOD 2 (unbanded)
Musca domestica = details: 500 ppm by weight; knockdown assessed 15 minutes after treatment
Meloidogyne incognita = test: Nematode test, J2 infective juveniles of Meloidogyne incognita, mortality; details: 12.5 ppm; J2 infective juveniles suspended in solution; mortality after three days
Puccinia recondita = test: Fungicidal test, Puccinia recondita (PUCCRT) on wheat, PRCO; format: in vivo; details: METHOD 2 (unbanded)

| SMILES | PHYTIN 1 d Prot/Foir PRCO [1] | MUSCDO AC = Musca domestica (knockdown), score (Musca domestica) | MELGIN = Meloidogyne incognita, grading of mortality (score) (Meloidogyne incognita) | PUCCRT 1 d Prot/Foir PRCO (Puccinia recondita) |
| --- | --- | --- | --- | --- |
| Cc1nc2cc(CC(=O)N(C)c3snc(C)c3Cl)ccc2o1 [2(B3)] | 100 | 9 (9 indicates 80-100% mortality) | 0 (0 indicates less than 40% mortality) | 96 |
| CCN(C(=O)Cc1ccc2oc(C)nc2c1)c1snc(C)c1Cl [2(C3)] | 150 | 9 (9 indicates 80-100% mortality) | 0 (0 indicates less than 40% mortality) | 74 |
| CCCN(C(=O)Cc1ccc2oc(C)nc2c1)c1snc(C)c1Cl [2(D3)] | 59 | 0 (0 indicates less than 40% mortality) | 0 (0 indicates less than 40% mortality) | 96 |
| C=CCN(C(=O)Cc1ccc2oc(C)nc2c1)c1snc(C)c1Cl [2(E3)] | 98 | 0 (0 indicates less than 40% mortality) | 0 (0 indicates less than 40% mortality) | 99 |
| C#CCN(C(=O)Cc1ccc2oc(C)nc2c1)c1snc(C)c1Cl [2(F3)] | 100 | 0 (0 indicates less than 40% mortality) | 0 (0 indicates less than 40% mortality) | 90 |
| COCN(C(=O)Cc1ccc2oc(C)nc2c1)c1snc(C)c1Cl [2(K3)] | 98 | 9 (9 indicates 80-100% mortality) | 0 (0 indicates less than 40% mortality) | 97 |
| CCOCN(C(=O)Cc1ccc2oc(C)nc2c1)c1snc(C)c1Cl [2(L3)] | 82 | 9 (9 indicates 80-100% mortality) | 0 (0 indicates less than 40% mortality) | 93 |
| COCCOCN(C(=O)Cc1ccc2oc(C)nc2c1)c1snc(C)c1Cl [2(M3)] | 83 | 0 (0 indicates less than 40% mortality) | 0 (0 indicates less than 40% mortality) | 68 |
| COCN(C(=O)Cc1ccc2oc(CC(C)(C)C)nc2c1)c1snc(C)c1Cl [15(K3)] |  | 0 (0 indicates less than 40% mortality) | 0 (0 indicates less than 40% mortality) |  |
| CC=Cc1nc2cc(CC(=O)Nc3snc(C)c3Cl)ccc2o1 [45(A3)] |  | 9 (9 indicates 80-100% mortality) | 0 (0 indicates less than 40% mortality) |  |
| Cc1nsc(NC(=O)Cc2ccc3oc(C(F)(F)C(F)(F)Cl)nc3c2)c1Cl [86(A3)] |  |  | 0 (0 indicates less than 40% mortality) |  |
| Cc1nsc(NC(=O)Cc2ccc3oc(Cl)nc3c2)c1Cl [174(A3)] |  | 0 (0 indicates less than 40% mortality) | 0 (0 indicates less than 40% mortality) |  |
| Cc1nsc(NC(=O)Cc2ccc3oc(-c4ccc([N+](=O)[O-])cc4Cl)nc3c2)c1Cl [267(A3)] |  |  | 0 (0 indicates less than 40% mortality) |  |
| Cc1nsc(NC(=O)Cc2ccc3oc(-c4ccccc4F)nc3c2)c1Cl [272(A3)] |  |  | 0 (0 indicates less than 40% mortality) |  |
| Cc1nsc(NC(=O)Cc2ccc3oc(Cc4cccs4)nc3c2)c1Cl [334(A3)] |  |  | 0 (0 indicates less than 40% mortality) |  |
| Cc1nsc(NC(=O)Cc2ccc3oc(-c4cccnc4Cl)nc3c2)c1Cl [343(A3)] |  |  | 0 (0 indicates less than 40% mortality) |  |
| Cc1nsc(NC(=O)Cc2ccc3oc(-c4ccno4)nc3c2)c1Cl [349(A3)] |  |  | 0 (0 indicates less than 40% mortality) |  |
